Our source for the melting point values is a melting point compilation (Tetko et al.; mined from patent text by program, amines drawn as free bases though some values may be those of a salt).

Each structure is given as a SMILES string.

In general, melting point refers to the temperature of the solid-liquid transition. Compound `COc1ccc(N2CCN(Cc3cc4ccccc4[nH]c3=O)CC2)cc1` displayed a melting point of 263 to 266 °C.
In the case of `O=[N+]([O-])c1ccc(Cl)c(N=C2NCCCN2)c1` it was 189 to 191 °C; in that of `CCOC(=O)[C@H](Cc1ccc(OS(=O)(=O)C(F)(F)F)cc1)NC(=O)OC(C)(C)C`, 47 to 49 °C; in that of `CN1C(=O)N(C)C(c2c(C(C)(C)C)cc(O)cc2C(C)(C)C)N(C)C1=O`, 194 to 196 °C.
With `COc1ccc(C(=O)Nc2ccc(C3(CNC(C)=O)CC3)cc2)cc1OC` the figure was 204 to 206 °C.
In the case of `COC(=O)OCC1OC(Oc2cc(C)cc(O)c2C(=O)CCc2ccc3occc3c2)C(O)C(O)C1O` (stereo unspecified) it was 78 to 82 °C; in that of `COC[C@H]1CN(c2ccc([C@H]3CC[C@H](C#N)CC3)cc2)C(=O)O1`, 174 °C.
`C=CCNc1nc(NCC=C(C)C)c2scc(C)c2n1`: the melting point was 114 to 115 °C.
`O=c1[nH]c(=O)n(CCCBr)c2ccccc12`: the melting point was 159 to 170 °C.
In the case of `CCOC(=O)CCCCSc1nnc(S)s1` it was 53 °C; in that of `O=C(NCCCCCCCCCCCC(=O)OCC12CC3CC(CC(C3)C1)C2)NC12CC3CC(CC(C3)C1)C2`, 68 °C.
With `OC(C1=NCCN1)(c1ccccn1)c1cccs1` (stereo unspecified) the figure was 151 to 152 °C; with `O=C(/C=C/c1ccc(C(F)(F)F)cc1-c1ccncc1)Nc1ccc2[nH]ccc2c1`, 229 to 234 °C; with `COC1=C(OC)C(=O)c2ccccc2C1=O`, 116 to 117 °C.
In the case of `COc1ccc(N(CC(O)CO)S(=O)(=O)c2c(F)c(F)c(F)c(F)c2F)cc1` (stereo unspecified) it was 130 to 131 °C.
In turn, `O=C(N[C@@H](CCO)C(=O)O)OCc1ccccc1` showed a melting point of 125 to 128 °C.
With `Fc1c(F)c(F)c(-c2c3ccccc3c(-c3c(F)c(F)c(F)c(F)c3F)c3ccccc23)c(F)c1F` the figure was 337 to 338 °C; with `O=C(NC1CCN(Cc2ccccc2)CC1)c1ccccc1OCc1ccnc2ccccc12`, 144 to 146 °C; with `CNc1nc2c(c(N3CCN(C=O)CC3)n1)SCCC2`, 149 to 151 °C.
With `CC1=NN(c2ccc(Cl)cc2)C(c2ccc(NC(=O)c3cccc(I)c3C(=O)NC(C)C)c(C)c2)C1` (stereo unspecified) the figure was 222 to 224 °C; with `COc1ccc(C(=O)c2c(Cc3ccccc3)sc3cc(OC)ccc23)cc1`, 110 to 112 °C.
With `O=C(Nc1ccc2c(c1)CCN(C(=O)OCc1ccccc1)C2)OCc1ccccc1` the figure was 115 to 116 °C.
With `Cn1c(CO)nnc1NCCCCOc1cccc(CN2CCCCC2)c1`, the melting point was 128 to 130 °C.
`O=C1Nc2ccccc2N(C(=O)CNCCc2ccccc2)C2CCC(Cc3ccccc3)C12` (stereo unspecified): the melting point lay in the range of 108 to 109 °C.
With `O=[N+]([O-])c1cnn2c1-c1ccccc1NC2c1ccccc1O` (stereo unspecified) the figure was 235 to 237 °C; with `N#CN=C(NCCSCc1ccccn1)NCCSCc1ccccn1`, 78 to 80 °C.
As to `Nc1ccccc1-c1ccc(C(O)CCC(=O)O)cc1` (stereo unspecified), the melting point lay in the range of 102 to 103 °C.
`CCOC(=O)C(=CNc1cccc(N2CCN(C)CC2)n1)C(=O)OCC` had a melting point of 114 to 115 °C.
As for `Cc1cc(NC(=O)c2cc3cc(F)ccc3n2Cc2ccncc2)cnc1N(C)C`, the melting point fell in the range of 282 to 283 °C.
With `O=C(Nc1ccc(Cl)c(Cl)c1)c1ccccc1SSc1ccccc1C(=O)Nc1ccc(Cl)c(Cl)c1` the figure was 230 to 233 °C; with `COCC1OC(n2cnc3c(NCc4cccc(I)c4)ncnc32)C(O)C1O` (stereo unspecified), 155 to 157 °C.
With `CNCc1nnc2n1-c1ccc(Cl)cc1C(c1ccccc1F)=CC2` the figure was 170 to 171 °C; with `CC(C)N[C@@H]1Cc2cccc(O)c2C[C@H]1O` (relative stereo), 138 to 140 °C; with `O=C(O)CCSC1c2ccccc2COc2ccc(OCc3ccc4cc(Cl)ccc4n3)cc21` (stereo unspecified), 178 to 180 °C.
In the case of `CCCCOC(=O)[C@H](Cc1ccc(O)cc1)NC(=O)C1(NC(=O)C2(S)CCCC2)CCCC1` it was 106 to 107 °C.
On to `CC(Br)C(=O)NS(=O)(=O)c1cccc2c1OC(C)(C)C2` (stereo unspecified), for which the melting point was in the range of 224 to 226 °C.
With `CCCCC(=O)Oc1ccc(-c2ccc(C#N)cc2)cc1` the figure was 36.5 to 36.9 °C; with `O=c1c(-c2ccccc2)cc([N+](=O)[O-])c2n1CCc1ccsc1-2`, 180 to 182 °C; with `CCc1ccc(NN)c(Cl)c1`, 55 to 57 °C.
On to `COc1ccc2ncc3ncn(-c4ccccc4Cl)c3c2c1`, for which the melting point lay within 202 to 205 °C.
With `CC(C)n1nc(-c2c(-c3ccccc3)nn3ccc(C(=O)NC(C)(C)C)cc23)ccc1=O` the figure was 200 to 201 °C; with `COC(=O)C[C@H](O)C[C@H](O)CCc1c(-c2ccc(F)cc2)c(-c2ccccc2)c(C(=O)NCc2ccc(F)cc2)n1C(C)C`, 49 to 50 °C.
With `COC(=O)c1ccc(CCc2nc(-c3ccccc3)oc2C)cc1` the figure was 59 to 60 °C.
With `O=C1CN(C(=O)CN2CC(c3ccc(Cl)cc3)CC2=O)CCN1` (stereo unspecified) the figure was 205 to 207 °C; with `C[C@H]([C@](O)(Cn1cncn1)c1ccc(F)cc1F)S(=O)(=O)N1CCN(c2ccc(C(F)(F)F)cc2)CC1`, 158 to 159 °C.
Turning to `O=C(NC1N=C(c2ccccc2)c2ccccc2NC1=O)c1ccc2ccccc2c1` (racemic), the melting point lay in the range of 293 to 294 °C.
With `O=C(N[C@H](Cc1ccccc1)C(=O)O)OCc1ccc2nc(-c3ccccc3)ccc2c1` the figure was 190 to 191 °C; with `c1ccc(-c2ccc(CN3Cc4cccn4Cc4ccccc43)cc2)cc1`, 135 to 137 °C; with `Clc1cc2c(nn1)CCCCC2`, 74 to 75 °C.
In the case of `NC(=S)c1ccc2c(c1)Nc1ccccc1S2` it was 208 to 209 °C; in that of `CCn1ncc2nc(C(=O)OCC#N)c(-c3ccccc3)nc21`, 102 to 103 °C.
In turn, `CCOC(=O)c1cnc2n(c1=O)C(C)CC=C2Nc1ccccc1` (stereo unspecified) had a melting point of 119 to 120 °C.
In the case of `Cc1cc(OC(F)F)ccc1NC(=O)c1cccc(N)c1C(=O)NC(C)C` it was 148 to 149 °C; in that of `CCc1cc2c(ccc(=O)n2Cc2ccc(NC(=O)c3ccccc3S(=O)(=O)O)cc2)c(CC)n1`, 233 to 236 °C.
`O=c1oc(=O)n(-c2ccc(F)cc2)c2ccccc12` displayed a melting point of 199 to 201 °C.
With `CC(C)(C)c1cc(-c2n[nH]c(=S)o2)cc(C(C)(C)C)c1O` the figure was 254 °C.
Consider `OCCC(CCO)c1ccccn1`, for which the melting point is 44 °C.
In the case of `N#CC(N)=C(C#N)N=Cc1nn(-c2c(Cl)cc(C(F)(F)F)cc2Cl)nc1C(F)(F)F` it was 218 to 220 °C; in that of `CN1CCCC1CCN1CCN(CCC2CCCN2C)C1=C(C#N)C#N` (stereo unspecified), 121 to 123 °C; in that of `CCCCC(CC)C(=O)Nc1ccc2c(/C=C/C(=O)O)cn(Cc3ccc(C(=O)NS(=O)(=O)c4ccccc4)cc3OC)c2c1` (stereo unspecified), 200 to 201 °C.
With `CSc1nc(-c2cccnc2)n(-c2ccc(F)cc2)c(=O)c1C#N` the figure was 190 to 193 °C; with `Cc1nc(SCc2ccncc2C(=O)O)sc1CC(=O)O`, 178 to 180 °C; with `Cc1c(CCC2C(=O)OCCC2OC2CCCCO2)c2c(c(C)c1OCc1ccccc1)CCC(C)(C)O2` (stereo unspecified), 95 to 95.5 °C.
As to `CS(=O)c1ccc2[nH]c3cc(C(=O)Nc4nnn[nH]4)nn3c(=O)c2c1` (stereo unspecified), the melting point was > 350 °C.
With `Cn1cc(OCC(F)(F)F)c(=O)c(-c2cccc(C(F)(F)F)c2)c1` the figure was 97 to 99 °C; with `CCC(CN1C(=O)c2ccccc2C1=O)n1cnc(-c2cccnc2)c1` (stereo unspecified), 150 to 152 °C; with `CCOC(=O)c1c(C(C)(C)O)nc(CC)n1Cc1ccc(-c2ccccc2-c2nnnn2C(c2ccccc2)(c2ccccc2)c2ccccc2)cc1`, 150 to 152 °C.
In the case of `Cn1c(COc2ccc(CC3SC(=O)NC3=O)cc2)nc2ccc(Oc3ccc(NC(=O)c4cccnc4)cc3)cc21` (stereo unspecified) it was 213 to 215 °C; in that of `COc1ccc(S(=O)(=O)C(C)(Cc2ccc(OCCCN3CCC(c4cccc(Cl)c4)CC3)cc2)C(=O)NO)cc1` (stereo unspecified), 122 °C; in that of `CC=CCNc1cc(C(=O)O)cc(S(N)(=O)=O)c1Nc1ccc(NC(C)=O)cc1`, 230 °C.
With `COc1ccc(C)c([N+](=O)[O-])c1C` the figure was 53 to 55 °C; with `Brc1cccc2nc3[nH]c4ccccc4nc-3c12`, > 300 °C; with `CC(=CCc1c(O)c(C)c2c(c1OS(=O)(=O)c1ccc(C)cc1)C(=O)OC2)CCC(=O)O`, 148 to 149 °C.
With `O=C(O)C(=O)c1cccc(Cl)c1`, the melting point lay within 59 to 62 °C.
With `Clc1cncc(Cl)c1C1=NC(c2ccc(Br)cc2)CO1` (stereo unspecified) the figure was 102 to 103 °C; with `COC1=C(OCCCCCc2ccccc2)C2OC2(C=O)C=C1` (stereo unspecified), 65 to 67 °C; with `Cc1cccc(C(=O)c2[nH]c3cc(Cl)ccc3c2CC(=O)O)n1`, 230 to 231 °C.
In the case of `CC(C)c1ccc(Cn2[nH]c(N)cc2=O)cc1` it was 105 °C; in that of `O=C1CCC2C=C(c3cccnc3)C=C(F)C2N1` (stereo unspecified), 203 °C; in that of `COC1(c2cc(F)cc(OCc3ccc4c(c3)C(=O)N(C)S4(=O)=O)c2)CCOCC1`, 155 to 156 °C.
With `Cc1c(C#N)ncn1-c1cccc(Cl)c1` the figure was 117 to 118 °C; with `COC1=C(OC)C(=O)C(N=[N+]=[N-])=C(C)C1=O`, 48 to 50 °C.
For the compound `N#Cc1cccc(CCn2ncc3c(=O)n(-c4ccccc4)c4ncccc4c32)c1`, the melting point fell in the range of 220 to 224 °C.
With `COC(=O)[C@@H]1C[C@H](OC(=O)c2cccs2)C(=O)[C@H]2[C@@]1(C)CC[C@H]1C(=O)O[C@H](c3ccoc3)C[C@]21C` the figure was 143 to 145 °C; with `O=c1c2ccccc2ccc2ccc(I)cc12`, 97.5 to 99 °C.
`CCc1ccc(S(=O)(=O)Nc2ccc(Cl)cc2[N+](=O)[O-])cc1` gave a melting point of 104 to 106 °C.
